Measurements taken from ChEMBL document CHEMBL5113403, “Design, synthesis, and biological evaluation of novel pyrazolo [3,4-d]pyrimidine derivatives as potent PLK4 inhibitors for the treatment of TRIM37-amplified breast cancer” (Eur J Med Chem, 2022).

Columns and labels:
MCF7 [1] = assay: Induction of cell cycle arrest in human MCF7 cells assessed as S phase cells at 2.5 uM measured after 48 hrs by flow cytometry analysis (reference value: 9.31 %); format: functional
MCF7 [2] = assay: Induction of apoptosis in human MCF7 cells assessed as viable cells at 0.10 uM incubated for 48 hrs by Annexin-V-FITC/PI staining based flow cytometric analysis (reference value: 97 %); format: functional; conditions: dose 0.1 µM
[3] = AUClast in Sprague-Dawley rat at 3 mg/kg, iv by LC-MS/MS analysis; format: ADME, organism-based; set-up: time 0 - last, dose 3 mg/kg, route iv; conditions: in vivo
[4] = MRT in Sprague-Dawley rat at 3 mg/kg, iv by LC-MS/MS analysis; format: ADME, organism-based; conditions: in vivo
MCF7 [5] = assay: Induction of apoptosis in human MCF7 cells assessed as total apoptotic cells at 1 uM incubated for 48 hrs by Annexin-V-FITC/PI staining based flow cytometric analysis relative to control; format: functional
[6] = AUCinfinity in Sprague-Dawley rat at 10 mg/kg, po by LC-MS/MS analysis; format: ADME, organism-based; set-up: time infinity, dose 10 mg/kg, route po; conditions: in vivo
MCF7 [7] = assay: Induction of cell cycle arrest in human MCF7 cells assessed as greater G1 phase cells at 2.5 uM measured after 48 hrs by flow cytometry analysis (reference value: 0.78 %); format: functional
MCF7 [8] = assay: Induction of cell cycle arrest in human MCF7 cells assessed as less G1 phase cells at 2.5 uM measured after 48 hrs by flow cytometry analysis (reference value: 0.44 %); format: functional
MCF7 [9] = assay: Induction of apoptosis in human MCF7 cells assessed as necrotic cells at 0.10 uM incubated for 48 hrs by Annexin-V-FITC/PI staining based flow cytometric analysis (reference value: 0.18 %); format: functional; conditions: dose 0.1 µM
[10] = Cmax in Sprague-Dawley rat at 10 mg/kg, po by LC-MS/MS analysis; format: ADME, organism-based; set-up: dose 10 mg/kg, route po; conditions: in vivo
MCF7 [11] = assay: Induction of apoptosis in human MCF7 cells assessed as early apoptotic cells at 1 uM incubated for 48 hrs by Annexin-V-FITC/PI staining based flow cytometric analysis (reference value: 2.83 %); format: functional
MCF7 [12] = assay: Induction of apoptosis in human MCF7 cells assessed as early apoptotic cells at 0.50 uM incubated for 48 hrs by Annexin-V-FITC/PI staining based flow cytometric analysis (reference value: 2.83 %); format: functional; conditions: dose 0.5 µM
MCF7 [13] = assay: Induction of cell cycle arrest in human MCF7 cells assessed as decrease in G1 phase cells at 1 uM measured after 48 hrs by flow cytometry analysis (reference value: 56.9 %); format: functional; set-up: scale not given: the % may be the effect or the level left
MCF7 [14] = assay: Induction of apoptosis in human MCF7 cells assessed as late apoptotic cells at 0.10 uM incubated for 48 hrs by Annexin-V-FITC/PI staining based flow cytometric analysis (reference value: 0.019 %); format: functional; conditions: dose 0.1 µM
CYP2C9 = CYP2C9 (Homo sapiens, UniProt P11712); assay: Inhibition of CYP2C9 in human liver microsomes at 10 uM preincubated for 10 mins followed by addition of NADPH-regenerating system and measured after 15 mins by LC-MS/MS analysis relative to control; format: ADME, Microsome; conditions: time 25 min
Chain of CYP2C9 (P11712 whole entry): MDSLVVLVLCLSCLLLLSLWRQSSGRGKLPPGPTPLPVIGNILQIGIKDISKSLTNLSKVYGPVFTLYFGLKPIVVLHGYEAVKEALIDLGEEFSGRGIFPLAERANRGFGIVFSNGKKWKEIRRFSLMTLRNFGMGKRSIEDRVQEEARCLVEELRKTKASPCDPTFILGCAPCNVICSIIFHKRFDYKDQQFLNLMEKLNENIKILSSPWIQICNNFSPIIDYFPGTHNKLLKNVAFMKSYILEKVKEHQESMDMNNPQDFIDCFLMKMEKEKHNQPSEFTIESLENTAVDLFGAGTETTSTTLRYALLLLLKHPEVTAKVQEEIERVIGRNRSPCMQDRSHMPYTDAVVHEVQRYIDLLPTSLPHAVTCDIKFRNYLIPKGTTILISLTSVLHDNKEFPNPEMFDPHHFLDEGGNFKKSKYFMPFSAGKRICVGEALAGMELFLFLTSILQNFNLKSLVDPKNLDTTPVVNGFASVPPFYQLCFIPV

MCF7 [15] = assay: Induction of apoptosis in human MCF7 cells assessed as viable cells at 2.5 uM incubated for 48 hrs by Annexin-V-FITC/PI staining based flow cytometric analysis (reference value: 97 %); format: functional
MCF7 [16] = assay: Induction of cell cycle arrest in human MCF7 cells assessed as S phase cells at 0.25 uM measured after 48 hrs by flow cytometry analysis (reference value: 9.31 %); format: functional
MCF7 [17] = assay: Induction of cell cycle arrest in human MCF7 cells assessed as greater G1 phase cells at 0.25 uM measured after 48 hrs by flow cytometry analysis (reference value: 0.78 %); format: functional
MCF7 [18] = assay: Induction of apoptosis in human MCF7 cells assessed as total apoptotic cells at 0.25 uM incubated for 48 hrs by Annexin-V-FITC/PI staining based flow cytometric analysis relative to control; format: functional
MCF7 [19] = assay: Induction of cell cycle arrest in human MCF7 cells assessed as less G1 phase cells at 0.25 uM measured after 48 hrs by flow cytometry analysis (reference value: 0.44 %); format: functional
[20] = Half-life in Sprague-Dawley rat at 3 mg/kg, iv by LC-MS/MS analysis; format: ADME, organism-based; conditions: in vivo
MCF7 [21] = assay: Induction of apoptosis in human MCF7 cells assessed as late apoptotic cells at 1 uM incubated for 48 hrs by Annexin-V-FITC/PI staining based flow cytometric analysis (reference value: 0.019 %); format: functional
[22] = target: Serine/threonine-protein kinase PAK 4 (Homo sapiens, UniProt O96013); assay: Inhibition of PAK4 (unknown origin) incubated for 60 mins by time-resolved HTRF assay
Chain of Serine/threonine-protein kinase PAK 4 (O96013 whole entry): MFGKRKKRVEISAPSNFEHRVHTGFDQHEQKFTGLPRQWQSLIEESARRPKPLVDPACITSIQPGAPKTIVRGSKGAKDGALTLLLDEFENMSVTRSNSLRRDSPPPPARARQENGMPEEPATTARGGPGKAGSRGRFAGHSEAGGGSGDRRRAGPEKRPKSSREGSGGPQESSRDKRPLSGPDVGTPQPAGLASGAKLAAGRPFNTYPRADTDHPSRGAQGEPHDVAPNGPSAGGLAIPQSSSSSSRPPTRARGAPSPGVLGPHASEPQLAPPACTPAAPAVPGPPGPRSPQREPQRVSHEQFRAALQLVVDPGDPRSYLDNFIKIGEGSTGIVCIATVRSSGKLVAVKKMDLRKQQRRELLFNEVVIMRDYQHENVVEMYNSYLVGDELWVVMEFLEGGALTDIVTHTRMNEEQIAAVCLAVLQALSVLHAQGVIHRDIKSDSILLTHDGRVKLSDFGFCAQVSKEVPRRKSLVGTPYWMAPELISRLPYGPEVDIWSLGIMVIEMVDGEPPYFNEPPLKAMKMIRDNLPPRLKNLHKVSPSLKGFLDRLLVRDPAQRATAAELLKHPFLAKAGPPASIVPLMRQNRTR

[23] = Metabolic stability in human liver microsomes assessed as compound remaining at 100 uM measured after 60 mins in the presence of NADPH by LC-MS/MS analysis; format: ADME, Microsome; conditions: read-out: Stability
MCF7 [24] = assay: Induction of apoptosis in human MCF7 cells assessed as necrotic cells at 1 uM incubated for 48 hrs by Annexin-V-FITC/PI staining based flow cytometric analysis (reference value: 0.18 %); format: functional
MCF7 [25] = assay: Induction of cell cycle arrest in human MCF7 cells assessed as decrease in G1 phase cells at 0.50 uM measured after 48 hrs by flow cytometry analysis (reference value: 56.9 %); format: functional; set-up: scale not given: the % may be the effect or the level left; conditions: dose 0.5 µM
CYP1A2 = target: T1, CYP1A2 (Homo sapiens, UniProt P05177); assay: Inhibition of CYP1A2 in human liver microsomes at 10 uM preincubated for 10 mins followed by addition of NADPH-regenerating system and measured after 15 mins by LC-MS/MS analysis relative to control; format: ADME, Microsome; conditions: time 25 min
T1 sequence (P05177 whole entry): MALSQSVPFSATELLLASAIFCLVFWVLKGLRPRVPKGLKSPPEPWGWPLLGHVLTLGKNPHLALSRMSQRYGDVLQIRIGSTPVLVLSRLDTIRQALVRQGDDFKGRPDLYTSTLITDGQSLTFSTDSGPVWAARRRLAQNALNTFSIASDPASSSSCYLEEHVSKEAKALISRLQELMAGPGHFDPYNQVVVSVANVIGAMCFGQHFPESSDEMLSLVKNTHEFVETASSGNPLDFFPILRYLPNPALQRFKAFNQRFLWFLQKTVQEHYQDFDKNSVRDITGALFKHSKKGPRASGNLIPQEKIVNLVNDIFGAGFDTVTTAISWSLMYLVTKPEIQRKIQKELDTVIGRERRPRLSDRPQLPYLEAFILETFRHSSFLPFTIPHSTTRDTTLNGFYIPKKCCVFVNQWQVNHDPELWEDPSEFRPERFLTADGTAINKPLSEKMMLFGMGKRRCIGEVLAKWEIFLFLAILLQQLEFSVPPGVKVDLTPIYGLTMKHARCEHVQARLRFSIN

MCF7 [26] = assay: Induction of apoptosis in human MCF7 cells assessed as total apoptotic cells at 2.50 uM incubated for 48 hrs by Annexin-V-FITC/PI staining based flow cytometric analysis relative to control; format: functional; conditions: dose 2.5 µM
[27] = MRT in Sprague-Dawley rat at 10 mg/kg, po by LC-MS/MS analysis; format: ADME, organism-based; conditions: in vivo
MCF7 [28] = assay: Induction of cell cycle arrest in human MCF7 cells assessed as less G1 phase cells at 1 uM measured after 48 hrs by flow cytometry analysis (reference value: 0.44 %); format: functional

AUC(0-t) [3]: 1070 ng·h/mL
MRT [4]: 1.07 h
AUC(0-inf) [6]: 301 ng·h/mL
Cmax [10]: 81.1 ng/mL
inhibition at 0.25 h, 10 µM (CYP2C9): 25.4%
half-life [20]: 63 min
IC50 [22]: 1750 nM
remaining at 1 h, 100 µM [23]: 25.2%
inhibition at 0.25 h, 10 µM (CYP1A2): 21.2%
MRT [27]: 3.13 h
Structure (SMILES): Cc1cc(Nc2nc(NCc3ccc(F)cc3F)nc3c2cnn3C2CCOCC2)n[nH]1
Activity (MCF7 [1]): 21.6%
Activity (MCF7 [2]): 74.9%
Activity (MCF7 [5]): 71.84%
Activity (MCF7 [7]): 0.87%
Activity (MCF7 [8]): 0.39%
Activity (MCF7 [9]): 1.15%
Activity (MCF7 [11]): 65%
Activity (MCF7 [12]): 59.7%
Activity (MCF7 [13]): 21.5%
Activity (MCF7 [14]): 4.74%
Activity (MCF7 [15]): 19.7%
Activity (MCF7 [16]): 10.67%
Activity (MCF7 [17]): 0.68%
Activity (MCF7 [18]): 30.98%
Activity (MCF7 [19]): 8.49%
Activity (MCF7 [21]): 6.84%
Activity (MCF7 [24]): 0.69%
Activity (MCF7 [25]): 36.2%
Activity (MCF7 [26]): 79.3%
Activity (MCF7 [28]): 0.37%
